The values below are quoted from earlier work in US5807535A, “Metal complexes of hydroxyaryl containing aminocarboxylic acid chelating agents” (Australian Nuclear Science & Technology Organisation, priority 1992, dated 1998).

For this data set the following is noted: lymphoma diagnosis; cited from earlier work.

Turning to `O=C([O-])CC(O)(CC(=O)[O-])C(=O)[O-].[Ga+3]` [Ga-67 citrate], the clearance entry is “clears slowly from the blood, through the liver, accumulating in the bowel”; the “uptake at the disease sites” value was “relatively fast and selective uptake at the disease sites”.
